Key:
[1] = target: T1, human P2X2/3 receptor (Homo sapiens, UniProt P56373+Q9UBL9); assay: P2X2/3 FLIPR (Fluorometric Imaging Plate Reader) assay; assay type: cell-based; details: transfected CHO-K1 cells; agonist α,β-meATP 5 μM; Fluo-3 calcium fluorescence; read-out: pKi for the P2X2/3 receptor (converted)
T1 construct: expressed in transfected cells; host or cells: CHO-K1
T1 sequence (Q9UBL9 1-471): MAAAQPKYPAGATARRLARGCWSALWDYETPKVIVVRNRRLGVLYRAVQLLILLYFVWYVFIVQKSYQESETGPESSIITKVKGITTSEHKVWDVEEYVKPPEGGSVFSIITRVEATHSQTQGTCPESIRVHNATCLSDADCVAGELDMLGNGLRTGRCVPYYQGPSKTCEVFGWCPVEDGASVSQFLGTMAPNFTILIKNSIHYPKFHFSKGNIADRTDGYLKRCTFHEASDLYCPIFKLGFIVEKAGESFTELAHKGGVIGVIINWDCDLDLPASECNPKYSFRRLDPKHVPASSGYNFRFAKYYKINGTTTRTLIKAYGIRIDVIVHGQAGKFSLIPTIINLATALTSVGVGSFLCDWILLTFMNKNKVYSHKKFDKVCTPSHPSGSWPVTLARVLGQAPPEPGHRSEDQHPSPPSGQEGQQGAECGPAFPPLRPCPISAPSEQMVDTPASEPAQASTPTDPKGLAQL
T1 sequence (P56373 1-397): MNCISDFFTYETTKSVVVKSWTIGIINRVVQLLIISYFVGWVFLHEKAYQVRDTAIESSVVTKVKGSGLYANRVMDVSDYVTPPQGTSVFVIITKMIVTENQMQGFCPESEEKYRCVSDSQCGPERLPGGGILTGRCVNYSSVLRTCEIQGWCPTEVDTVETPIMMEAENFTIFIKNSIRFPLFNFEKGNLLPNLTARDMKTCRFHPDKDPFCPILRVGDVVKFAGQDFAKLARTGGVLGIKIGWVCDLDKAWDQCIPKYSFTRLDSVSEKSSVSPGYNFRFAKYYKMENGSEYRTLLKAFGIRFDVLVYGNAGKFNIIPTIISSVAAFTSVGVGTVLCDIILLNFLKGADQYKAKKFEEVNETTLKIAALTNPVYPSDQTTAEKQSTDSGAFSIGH
Protocol: (§1) CHO-K1 cells were transfected with cloned rat P2X3 or human P2X2/3 receptor subunits and passaged in flasks. 18-24 hours before the FLIPR experiment, cells were released from their flasks, centrifuged, and resuspended in nutrient medium at 2.5×10^5 cells/ml. The cells were aliquoted into black-walled 96-well plates at a density of 50,000 cells/well and incubated overnight in 5% CO2 at 37° C. On the day of the experiment, cells were washed in FLIPR buffer (calcium- and magnesium-free Hank's balanced salt solution, 10 mM HEPES, 2 mM CaCl2, 2.5 mM probenecid; FB). Each well received 100 μl FB and 100 μl of the fluorescent dye Fluo-3 AM [2 μM final conc.]. […]
(§2) Test compounds (dissolved in DMSO at 10 mM and serially diluted with FB) or vehicle were added to each well (25 μl of a 4× solution) and allowed to equilibrate for 20 minutes at room temperature. The plates were then placed in the FLIPR and a baseline fluorescence measurement (excitation at 488 nm and emission at 510-570 nm) was obtained for 10 seconds before a 100 μl/well agonist or vehicle addition. […] Fluorescence was measured for an additional 2 minutes at 1 second intervals after agonist addition. A final addition of ionomycin (5 μM, final concentration) was made to each well of the FLIPR test plate to establish cell viability and maximum fluorescence of dye-bound cytosolic calcium. […]

[2] = target: T2, rat P2X3 receptor (Rattus norvegicus, UniProt P49654); assay: P2X3 FLIPR (Fluorometric Imaging Plate Reader) assay; assay type: cell-based; details: transfected CHO-K1 cells; agonist α,β-meATP 1 μM; Fluo-3 calcium fluorescence; read-out: pIC50 for the P2X3 receptor (converted)
T2 construct: expressed in transfected cells; host or cells: CHO-K1
T2 sequence (P49654 1-397): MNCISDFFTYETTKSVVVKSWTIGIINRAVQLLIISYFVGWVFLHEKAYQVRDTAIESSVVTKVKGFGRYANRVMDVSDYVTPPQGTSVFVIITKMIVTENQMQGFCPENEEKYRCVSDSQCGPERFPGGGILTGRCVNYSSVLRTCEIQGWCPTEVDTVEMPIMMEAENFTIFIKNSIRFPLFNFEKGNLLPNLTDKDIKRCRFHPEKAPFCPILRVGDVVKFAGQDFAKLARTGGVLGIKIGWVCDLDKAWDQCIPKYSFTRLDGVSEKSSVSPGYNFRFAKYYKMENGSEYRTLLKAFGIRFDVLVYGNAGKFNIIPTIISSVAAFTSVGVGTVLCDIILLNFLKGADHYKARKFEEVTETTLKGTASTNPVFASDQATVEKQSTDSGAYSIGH
Protocol: as §1, §2

Structure (SMILES)	Ki [1] [nM]	IC50 [2] [nM]
Cc1ccc(-c2cc(C(=O)NC(C)c3cnccn3)cc(-n3ccnc3C(C)C)c2)cc1 (centres unmarked) [Compound 27, 5-(2-Isopropyl-imidazol-1-yl)-4′-methyl-biphenyl-3-carboxylic acid (1-pyrazin-2-yl-ethyl)-amide]	~46.8	
CCc1nccn1-c1cc(C(=O)NCc2cnc(C)cn2)cc(-c2ccc(C)cn2)c1 [Compound 29, 3-(2-Ethyl-imidazol-1-yl)-N-(5-methyl-pyrazrn-2-ylmethyl)-5-(5-methyl-pyridin-2-yl)-benzamide]		~2.82

— US7858654B2, “Imidazole-substituted arylamides as P2X3 and P2X2/3 antagonists” (Roche Palo Alto LLC, priority 2007, dated 2010)
